Test results published in patent US20220204493A1, “CRYSTALLINE FORM OF A BET-INHIBITOR AND MANUFACTURE THEREOF” (ORION CORPORATION, priority 2019, published 2022).
Values belong to the compound of their own block, whether it stands above or below them.

Assays:
[1] = Hygroscopicity of crystalline form 1; assay type: physicochemical
[2] = Relative stability study between crystalline form 1 and 2 (storage at stressed conditions, XRPD at time points); assay type: physicochemical
Description: The XRPD pattern of the crystalline form 1 of compound (I) was measured using a PANalytical X'Celerator θ-θ diffractometer with CuKα radiation (40 kV, 30 mA). The diffractometer was operated in reflection mode. The measurements were performed in the range of 3°-40° 2θ. 100-300 mg of the sample powder was placed in the sample holder and the surface was pressed. For comparison purposes, the XRPD pattern of an unmilled sample of crystalline form 1 and the XRPD pattern of a milled sample of crystalline form 1 are shown together in FIG. 3.
The XRPD pattern of the amorphic form and the crystalline form 2 of compound (I) were measured as above except that a small sample amounts (approximately 5-10 mg) were first placed in the centre of a zero-background sample holder and then gently spread to a thin layer.
(§1) Four samples of compound (I) in crystalline form 2 (with traces of form 1) prepared according to Example 10 were stored at stressed conditions. XRPD of each sample was recorded at initial time point and at further time points. Moreover, long term stability of crystalline form 1 of compound (I) at different storage conditions was studied.

[3] = Long-term stability of crystalline form 1 at different storage conditions (XRPD); assay type: physicochemical
Description: as §1

Hygroscopicity [1]: low hygroscopicity
Relative stability of the crystalline forms ([2]; all studied conditions): more stable than form 2
Physical stability [3]: physically stable
Long-term stability, changes by XRPD ([3]; 25° C./RH 60 % and 40° C./RH 75 %): no changes were observed
Long-term stability (stable up to; no changes by XRPD) ([3]; storage 25° C./RH 60 %): Stable up to 24 months
Long-term stability (stable up to; no changes by XRPD) ([3]; storage 40° C./RH 75 %): Stable up to 6 months
Structure (SMILES): COc1cc2c(cc1-c1c(C)noc1C)cc(C)c(=O)n2Cc1ccccn1 [Crystalline form 1, 6-(3,5-dimethylisoxazol-4-yl)-7-methoxy-3-methyl-1-(pyridin-2-ylmethyl)quinolin-2(1H)-one]

melting point: 180 °C
Structure (SMILES): COc1cc2c(cc1-c1c(C)noc1C)cc(C)c(=O)n2Cc1ccccn1 [amorphous compound (I), 6-(3,5-Dimethylisoxazol-4-yl)-7-methoxy-3-methyl-1-(pyridin-2-ylmethyl)quinolin-2(1H)-one]

Crystalline form found by XRPD ([2]; 25 °C/RH 60 %, 2 weeks): II +
Crystalline form found by XRPD ([2]; 25 °C/RH 60 %, 4 weeks): II +
Crystalline form found by XRPD ([2]; 25 °C/RH 60 %, 12 weeks): II +
Crystalline form found by XRPD ([2]; 25 °C/RH 60 %, 24 weeks): I +
Crystalline form found by XRPD ([2]; 25 °C/RH 60 %, initial): II +
Crystalline form found by XRPD ([2]; 30 °C/RH 65 %, 2 weeks): II +
Crystalline form found by XRPD ([2]; 30 °C/RH 65 %, 4 weeks): II +
Crystalline form found by XRPD ([2]; 30 °C/RH 65 %, 12 weeks): II +
Crystalline form found by XRPD ([2]; 30 °C/RH 65 %, 24 weeks): I +
Crystalline form found by XRPD ([2]; 30 °C/RH 65 %, initial): II +
Crystalline form found by XRPD ([2]; 40 °C/RH 75 %, 2 weeks): II +
Crystalline form found by XRPD ([2]; 40 °C/RH 75 %, 4 weeks): II +
Crystalline form found by XRPD ([2]; 40 °C/RH 75 %, initial): II +
Crystalline form found by XRPD ([2]; RT/RH 5 %, initial): II +
Time for transformation of form 2 to form 1 ([2]; all studied conditions): ≤ 36 weeks
Structure (SMILES): COc1cc2c(cc1-c1c(C)noc1C)cc(C)c(=O)n2Cc1ccccn1 [crystalline form 2, 6-(3,5-dimethylisoxazol-4-yl)-7-methoxy-3-methyl-1-(pyridin-2-ylmethyl)quinolin-2(1H)-one]
